Laboratory results reported in patent publication US20250059141A1, “TLR MODULATOR AND USE THEREOF” (DUALITY BIOLOGICS (SUZHOU) CO., LTD., priority 2021, published 2025).
Where two headings read alike, the source gives them in different places.

Key:
[1] = tested on: TNF-α production in human PBMCs; assay: Induction of TNF-α in human PBMCs (ELISA); format: cell-based; settings: PBMC, 24 h, read-out: PBMC assay TNFa EC50
Description: (§1) In this example, the induction activity of the compounds of the present application on human PBMCs for TNF-α and IFN-α production was assessed in human PBMCs (human peripheral blood mononuclear cells). The human PBMCs were purchased from Shanghai Saily Biotechnology Co., Ltd. (Cat. No. XFB—HP100B). PBMC cells were treated with the compounds. The compounds of the present application are diluted in DMSO, for example, to about 15 mM. The reference compound was added to the plates in sequence after diluted to 5 mg/mL. The compounds were serially 3- or 4-fold diluted to 8 concentrations and added to plates in duplicate (Table 2-1 for serial 3-fold dilutions and Table 2-2 for serial 4-fold dilutions). For the negative control wells, DMSO was added at 0.4 μL/well, and a 5 mg/mL reference compound solution was added to the positive control wells at 0.4 μL/well. The final concentration of DMSO was 0.2%. Frozen human PBMCs in cryopreservation tubes were quickly thawed in a 37° C. water bath and transferred into 50-mL centrifuge tubes. Prewarmed RPMI1640 medium was gradually added and the mixture was well mixed and centrifuged for 15 min before the supernatant was discarded. The cells were resuspended in a culture medium and counted. The cell suspension was adjusted to 2.5×10^6 cells/mL with the culture medium. Diluted cells were added at 200 μL/500,000 cells/well in 96-well plates containing the compounds. The cell plates were incubated at 37° C./5% CO2 for 24 h.
The plate was then washed thrice. […] Termination of reaction: The reaction was terminated by quickly adding the stop solution at 100 μL/well. Plate reading: The reading at wavelength 450 nm was detected by an M2e instrument within 10 min after the termination.
(§2) Compound activity data analysis: The OD450 values were converted to TNF-α and IFN-α contents by GraphPad Prism software analysis and fitted to give dose-response curves of the compounds. The EC50 values for the compounds were calculated, where the Emax values are the maximal values for TNF-α and IFN-α.

[2] = tested on: IFN-α production in human PBMCs; assay: Induction of IFN-α in human PBMCs (ELISA); format: cell-based; settings: PBMC, 24 h, read-out: PBMC assay IFNa EC50
Description: as §1
The plate was washed 4 times, then the detection antibody was added. […] The plate was washed 4 additional times, then the enzyme was added. […] Termination of reaction: The reaction was terminated by quickly adding the stop solution at 100 μL/well. Plate reading: The reading at wavelength 450 nm was detected by an M2e instrument within 10 min after the termination.
as §2

[3] = serial 4-fold dilutions, class symbols

| Compound | EC50 ([1]; serial 3-fold dilutions) [nM] | EC50 ([2]; serial 3-fold dilutions) [nM] | EC50 [1, 3] [nM] | EC50 [2, 3] [nM] |
| --- | --- | --- | --- | --- |
| CCCN(OCc1ccc(N)cc1)C(=O)C1=Cc2ccc(-c3cncc(CO)c3)cc2N=C(N)C1 [Compound 15] | 3 | 3.02 |  |  |
| CCCN(OCc1ccc(N)cc1)C(=O)C1=Cc2ccc(-c3cncc(C(=O)O)c3)cc2N=C(N)C1 [Compound 32] |  |  | 10 to 50 | 50 to 500 |
| CCCN(OCc1ccc(N)cc1)C(=O)C1=Cc2ccc(-c3cccc(S(N)(=O)=O)c3)cc2N=C(N)C1 [Compound 35] | 5 | 2.95 |  |  |
| CCCN(OCc1ccc(N)cc1)C(=O)C1=Cc2ccc(-c3cncc(S(N)(=O)=O)c3)cc2N=C(N)C1 [Compound 36] | 12.2 | 6.05 |  |  |
| CCCN(OCc1ccc(N)cc1)C(=O)C1=Cc2ccc(C(=O)N3CC(CO)C3)cc2N=C(N)C1 [Compound 37] |  |  | 10 to 50 | > 500 |
| CCCN(OCc1ccc(N)cc1)C(=O)C1=Cc2ccc(C(=O)Nc3cccnc3)cc2N=C(N)C1 [Compound 40] | 9.08 | 1320 |  |  |
| CCCN(OCc1ccc(N)cc1)C(=O)C1=Cc2ccc(-c3cccc(S(=O)(=O)N4CC(O)C4)c3)cc2N=C(N)C1 [Compound 41] | 15.3 | 31.1 | ≤ 10 | 50 to 500 |
| CCCN(OCc1ccc(N)cc1)C(=O)C1=Cc2ccc(-c3ccc(C(=O)N4CC[C@@H](O)C4)cc3)cc2N=C(N)C1 [Compound 42] | 37 | 48.3 | 10 to 50 | > 500 |
| CCCN(OCc1ccc(N)cc1)C(=O)C1=Cc2ccc(-c3ccc4c(c3)C(=O)OC4)cc2N=C(N)C1 [Compound 43] | 8.04 | 29.6 |  |  |
| NC1=Nc2cc(-c3cncc(CO)c3)ccc2C=C(C(=O)N(CC2CC2)OCc2ccc(N)cc2)C1 [Compound 45] | 7.33 | 7.25 |  |  |
| CCCN(OCc1ccc(N)cc1)C(=O)C1=Cc2ccc(C(=O)N3CCC(O)C3)cc2N=C(N)C1 (stereo not shown) [Compound 46] |  |  | 10 to 50 | 50 to 500 |
| CCCN(OCc1ccc(N)cc1)C(=O)C1=Cc2ccc(C(=O)N3CCOC(CO)C3)cc2N=C(N)C1 (stereo not shown) [Compound 47] |  |  | 10 to 50 | 50 to 500 |
| CCCN(OCc1ccc(N)cc1)C(=O)C1=Cc2ccc(C(=O)NCCO)cc2N=C(N)C1 [Compound 48] |  |  | 10 to 50 | > 500 |
| CCCN(OCc1ccc(N)cc1)C(=O)C1=Cc2ccc(-c3cncc(Cl)c3)cc2N=C(N)C1 [Compound 49] | 26.1 | 48.2 |  |  |
| CCCN(OCc1ccc(N)cc1)C(=O)C1=Cc2ccc(-c3cncc(C#N)c3)cc2N=C(N)C1 [Compound 50] | 7.7 | 41.5 |  |  |
| CCCN(OCc1ccc(N)cc1)C(=O)C1=Cc2ccc(-c3ccc(C#N)nc3)cc2N=C(N)C1 [Compound 51] | 17.3 | 142 |  |  |
| CCCN(OCc1ccc(N)cc1)C(=O)C1=Cc2ccc(-c3cncc(N)c3)cc2N=C(N)C1 [Compound 52] | 8.61 | 6.58 |  |  |
| CCCN(OCc1ccc(N)cc1)C(=O)C1=Cc2ccc(-c3cncc(C(F)(F)F)c3)cc2N=C(N)C1 [Compound 53] |  |  | 10 to 50 | 50 to 500 |
| CCCN(OCc1ccc(N)cc1)C(=O)C1=Cc2ccc(-c3cncc(CN)c3)cc2N=C(N)C1 [Compound 54] | 3.98 | 5.35 |  |  |
| CCCN(OCc1ccc(N)cc1)C(=O)C1=Cc2ccc(-c3ccc(N4CCOCC4)nc3)cc2N=C(N)C1 [Compound 55] | 33.5 | 43.4 |  |  |
| CCCN(OCc1ccc(N)cc1)C(=O)C1=Cc2ccc(-c3cncc(S(C)(=O)=O)c3)cc2N=C(N)C1 [Compound 56] | 7.35 | 28.5 |  |  |
| NC1=Nc2cc(-c3cncc(CO)c3)ccc2C=C(C(=O)N(CCC(F)(F)F)OCc2ccc(N)cc2)C1 [Compound 58] |  |  | ≤ 10 | 10 to 50 |
| CCCN(OCc1ccc(N)cc1Cl)C(=O)C1=Cc2ncc(-c3cncc(CO)c3)cc2N=C(N)C1 [Compound 59] |  |  | ≤ 10 | 50 to 500 |
| CCCN(OCc1ccc(N)cc1OC)C(=O)C1=Cc2ncc(-c3cncc(CO)c3)cc2N=C(N)C1 [Compound 60] |  |  | ≤ 10 | 50 to 500 |
